This assay has as its system style of saffron. Put plainly: Tissue culture of saffron style with alanine; visual rating of stigma-like tissue (Example 6). It counts as cell-based. The settings on record: Ki 2 ppm, Linsmaier-Skoog medium, scale 0-10. From the text: The relative amount of the stigma-like tissue was visually determined and rated according to an 11-part divided scale, taking an amount corresponding to the amount of naturally-occurring three stigmata containing saffron pigment as 10, nil as 0, and equally dividing the interval therebetween.
The relative color density of the stigma-like tissue was visually determined, and rated according to an 11-part divided scale, taking a density corresponding to the density of a naturally-occurring stigma containing saffron pigment as 10 and colorlessness as 0, and equally dividing the interval therebetween.
Guaran powder was then added to the medium in a concentration of 0.2% by weight. The medium was sterilized at 120° C. for 20 minutes in an autoclave. The sterilized medium was aloquated into sterile plastic plates having a diameter of 55 mm, followed by cooling to solidify.
A bud of a saffron flower before opening was harvested, sterilized by soaking in a 0.5 vol% sodium hypochlorite aqueous solution for 10 minutes, and washed with water. The ovary portion of the bud was taken out and cut to pieces of about 8 mm. Each cut piece was seeded on each of the above-prepared solid media.
After 7 weeks of culturing, the tissue cultures were visually observed and evaluated in the same manner as in Example 1.
A saffron ovary was cultured in the same manner as in Example 3, except for replacing the MS medium with a Linsmaier-Skoog medium to which Ki, NAA and alanine were added in the concentrations shown in Table 11.
The procedure of Example 4 was repeated except for replacing the overy with a style of saffron.

Regarding `C[C@H](N)C(=O)O` (racemic) [Alanine, alanine], the “Relative Density of Stigma-Like Tissue Containing Saffron Pigment” value (shortened to “Relative Density”) (alanine 0.1 g/l, NAA 0.1 ppm) stood at 6; the “Relative Density” value (alanine 0.1 g/l, NAA 1.0 ppm) worked out at 7; the “Relative Density” value (alanine 1.0 g/l, NAA 0.1 ppm) came out at 7; the “Relative Density” value (alanine 1.0 g/l, NAA 1.0 ppm) came out at 7; the “Relative Density” value (alanine 5.0 g/l, NAA 0.1 ppm) was 7; the “Relative Density” value (alanine 5.0 g/l, NAA 1.0 ppm) came out at 8. Moreover, the “Relative Production of Stigma-Like Tissue Containing Saffron Pigment” value by setting is: (alanine 0.1 g/l, NAA 0.1 ppm) 4; (alanine 0.1 g/l, NAA 1.0 ppm) 5; (alanine 1.0 g/l, NAA 0.1 ppm) 5; (alanine 1.0 g/l, NAA 1.0 ppm) 6; (alanine 5.0 g/l, NAA 0.1 ppm) 5; (alanine 5.0 g/l, NAA 1.0 ppm) 6.

Values taken from US5085995A, “Method for producing saffron stigma-like tissue and method for producing useful components from saffron stigma-like tissue” (Somar Corporation, priority 1989, dated 1992).
